According to patent US9469674B2 (HAINAN UNIVERSITY, dated 2016):
Values joined by “and” are separate entries in the source; they are usually repeats but may differ in a detail not shown here. Equal entries are not always repeated. “Also recorded” adds a separate entry of the source. Where two headings read alike, the source gives them in different places. Where no end group is shown, it is not given here.

Assays:
α6/α3β2β3 nAChR = α6/α3β2β3 nAChR (Rattus norvegicus, UniProt P04757+P12390+P43143); test: cell-based; type: cell-based
α4β4 nAChR = α4β4 nAChR (Rattus norvegicus, UniProt P09483+P12392); test: cell-based; type: cell-based
α3β2[Q34A] nAChR mutant = α3β2[Q34A] nAChR mutant (Rattus norvegicus, UniProt P04757+P12390, Q58A); type: cell-based
α3β2[V111I] nAChR mutant = α3β2[V111I] nAChR mutant (Rattus norvegicus, UniProt P04757+P12390, V135I); type: cell-based
Sequence of α3β2[V111I] nAChR mutant (P04757 26-499 limits assumed, stated change not applied): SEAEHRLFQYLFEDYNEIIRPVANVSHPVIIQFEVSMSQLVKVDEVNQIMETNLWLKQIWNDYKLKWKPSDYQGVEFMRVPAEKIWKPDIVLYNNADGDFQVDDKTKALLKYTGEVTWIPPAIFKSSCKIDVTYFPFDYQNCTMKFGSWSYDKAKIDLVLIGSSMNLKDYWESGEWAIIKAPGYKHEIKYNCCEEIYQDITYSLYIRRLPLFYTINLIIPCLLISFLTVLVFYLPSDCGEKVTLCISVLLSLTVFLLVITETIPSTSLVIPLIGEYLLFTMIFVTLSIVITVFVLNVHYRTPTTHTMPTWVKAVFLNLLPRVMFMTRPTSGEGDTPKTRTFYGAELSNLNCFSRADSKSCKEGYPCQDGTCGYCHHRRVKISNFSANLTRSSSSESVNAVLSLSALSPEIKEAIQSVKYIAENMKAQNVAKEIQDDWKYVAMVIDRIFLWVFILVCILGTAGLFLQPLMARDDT
Sequence of α3β2[V111I] nAChR mutant (P12390 25-500 V135I limits assumed, stated change not applied): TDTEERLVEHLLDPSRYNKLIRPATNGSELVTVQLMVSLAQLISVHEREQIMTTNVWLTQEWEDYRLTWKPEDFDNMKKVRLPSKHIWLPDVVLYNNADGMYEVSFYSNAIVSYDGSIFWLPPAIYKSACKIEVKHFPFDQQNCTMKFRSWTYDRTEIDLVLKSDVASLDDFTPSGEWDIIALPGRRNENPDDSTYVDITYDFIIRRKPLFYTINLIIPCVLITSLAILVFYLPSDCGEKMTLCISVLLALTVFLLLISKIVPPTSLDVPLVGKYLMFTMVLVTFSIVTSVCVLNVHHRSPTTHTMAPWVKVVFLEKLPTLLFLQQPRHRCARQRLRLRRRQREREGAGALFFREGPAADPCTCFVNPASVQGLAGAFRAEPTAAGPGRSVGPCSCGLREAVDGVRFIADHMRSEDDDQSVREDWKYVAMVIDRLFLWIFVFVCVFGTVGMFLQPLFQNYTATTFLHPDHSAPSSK

human α6/α3β2β3 nAChR = human α6/α3β2β3 nAChR (Homo sapiens, UniProt P17787+P32297+Q15825); test: cell-based; type: cell-based
α3β2 nAChR = α3β2 nAChR (Rattus norvegicus, UniProt P04757+P12390); test: cell-based; type: cell-based
α2β2 nAChR = α2β2 nAChR (Rattus norvegicus, UniProt P12389+P12390); test: cell-based; type: cell-based
α3β2[F119Q] nAChR mutant = α3β2[F119Q] nAChR mutant (Rattus norvegicus, UniProt P04757+P12390, F143Q); type: cell-based
Sequence of α3β2[F119Q] nAChR mutant (P04757 26-499 limits assumed, stated change not applied): as the sequence (P04757 26-499 limits assumed, stated change not applied) above
Sequence of α3β2[F119Q] nAChR mutant (P12390 25-500 F143Q limits assumed, stated change not applied): as the sequence (P12390 25-500 V135I limits assumed, stated change not applied) above, with I111V, F119Q counted along it

human α3β2 nAChR [1] = target: human α3β2 nAChR (Homo sapiens, UniProt P17787+P32297); type: cell-based
α4β2 nAChR = α4β2 nAChR (Rattus norvegicus, UniProt P09483+P12390); test: cell-based
α6/α3β4 nAChR = α6/α3β4 nAChR (Rattus norvegicus, UniProt P04757+P12392+P43143); test: cell-based; type: cell-based
[2] = tested on: hot-plate pain threshold in Kunming mice; conditions: mouse, in vivo
[3] = tested on: Chronic Constriction Injury model of ischiadic nerve (neuralgia); conditions: rat, in vivo
α3β2[T59K] nAChR mutant = α3β2[T59K] nAChR mutant (Rattus norvegicus, UniProt P04757+P12390, T83K); type: cell-based
Sequence of α3β2[T59K] nAChR mutant (P04757 26-499 limits assumed, stated change not applied): as the sequence (P04757 26-499 limits assumed, stated change not applied) above
Sequence of α3β2[T59K] nAChR mutant (P12390 25-500 T83K limits assumed, stated change not applied): as the sequence (P12390 25-500 V135I limits assumed, stated change not applied) above, with T59K, I111V counted along it

α7 nAChR = α7 nAChR (Rattus norvegicus, UniProt Q05941); test: cell-based; type: cell-based
Sequence of α7 nAChR (Q05941 23-502 limits assumed): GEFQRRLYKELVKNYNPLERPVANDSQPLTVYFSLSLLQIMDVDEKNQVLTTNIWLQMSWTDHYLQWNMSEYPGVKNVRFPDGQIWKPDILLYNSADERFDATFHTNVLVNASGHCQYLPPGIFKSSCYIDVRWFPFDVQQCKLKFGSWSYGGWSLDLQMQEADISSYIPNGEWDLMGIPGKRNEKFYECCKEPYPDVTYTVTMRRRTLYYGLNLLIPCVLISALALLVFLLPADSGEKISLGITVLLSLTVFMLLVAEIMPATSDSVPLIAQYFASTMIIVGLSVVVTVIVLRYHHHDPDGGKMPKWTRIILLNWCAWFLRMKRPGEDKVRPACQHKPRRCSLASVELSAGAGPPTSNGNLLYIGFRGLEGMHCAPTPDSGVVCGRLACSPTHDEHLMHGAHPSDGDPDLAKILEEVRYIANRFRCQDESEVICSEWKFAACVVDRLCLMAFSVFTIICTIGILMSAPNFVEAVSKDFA

α3β2[K79A] nAChR mutant = α3β2[K79A] nAChR mutant (Rattus norvegicus, UniProt P04757+P12390, K103A); type: cell-based
α3β4 nAChR = α3β4 nAChR (Rattus norvegicus, UniProt P04757+P12392); test: cell-based; type: cell-based
α3β2[T59L] nAChR mutant = α3β2[T59L] nAChR mutant (Rattus norvegicus, UniProt P04757+P12390, T83L); type: cell-based
Sequence of α3β2[T59L] nAChR mutant (P04757 26-499 limits assumed, stated change not applied): as the sequence (P04757 26-499 limits assumed, stated change not applied) above
Sequence of α3β2[T59L] nAChR mutant (P12390 25-500 T83L limits assumed, stated change not applied): as the sequence (P12390 25-500 V135I limits assumed, stated change not applied) above, with T59L, I111V counted along it

α9α10 nAChR = α9α10 nAChR (Rattus norvegicus, UniProt P43144+Q9JLB5); test: cell-based
α3β2[T59I] nAChR mutant = α3β2[T59I] nAChR mutant (Rattus norvegicus, UniProt P04757+P12390, T83I); type: cell-based
[4] = target: α3β4 acetylcholine receptor; conditions: read-out: half-blocking dose IC50; cited from earlier work
[5] = target: α9α10 acetylcholine receptor (Homo sapiens, UniProt Q9GZZ6+Q9UGM1); conditions: read-out: half-blocking dose IC50; cited from earlier work
[6] = target: α7 acetylcholine receptor (Homo sapiens, UniProt P36544); conditions: read-out: half-blocking dose IC50; cited from earlier work
Sequence of α7 acetylcholine receptor (P36544 23-502 limits assumed): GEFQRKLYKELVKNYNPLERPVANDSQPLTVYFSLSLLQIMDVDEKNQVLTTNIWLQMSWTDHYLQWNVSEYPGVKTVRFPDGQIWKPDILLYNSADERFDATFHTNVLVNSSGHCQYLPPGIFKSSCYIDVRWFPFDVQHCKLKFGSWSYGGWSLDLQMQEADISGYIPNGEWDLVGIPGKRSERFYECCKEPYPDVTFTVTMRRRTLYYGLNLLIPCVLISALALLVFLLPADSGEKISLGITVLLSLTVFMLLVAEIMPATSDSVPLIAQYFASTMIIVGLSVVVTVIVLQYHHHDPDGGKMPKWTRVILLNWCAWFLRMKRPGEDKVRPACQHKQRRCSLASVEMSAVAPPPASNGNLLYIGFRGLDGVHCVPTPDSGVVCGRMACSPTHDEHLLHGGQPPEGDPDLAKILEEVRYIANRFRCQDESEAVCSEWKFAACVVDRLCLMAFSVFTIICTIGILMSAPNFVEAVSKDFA

[7] = target: α3β2 acetylcholine receptor (Homo sapiens, UniProt P17787+P32297); conditions: read-out: half-blocking dose IC50; cited from earlier work
α7/5HT3 chimera = conditions: read-out: half-blocking dose IC50; cited from earlier work
[8] = target: α4β2 acetylcholine receptor (Homo sapiens, UniProt P17787+P43681); conditions: read-out: half-blocking dose IC50; cited from earlier work
[9] = target: α6/α3β4 acetylcholine receptor; conditions: read-out: half-blocking dose IC50; cited from earlier work
[10] = target: α2β4 acetylcholine receptor (Homo sapiens, UniProt P30926+Q15822); conditions: read-out: half-blocking dose IC50; cited from earlier work
[11] = target: α6/α3β2β3 acetylcholine receptor; conditions: read-out: half-blocking dose IC50; cited from earlier work
[12] = target: α4β4 acetylcholine receptor (Homo sapiens, UniProt P30926+P43681); conditions: read-out: half-blocking dose IC50; cited from earlier work
rat α2β4 nAChR = rat α2β4 nAChR (rat, UniProt P12389); test: cell-based or functional assay
rat α4β4 nAChR = rat α4β4 nAChR (rat, UniProt P09483); test: cell-based or functional assay
rat α4β2 nAChR = rat α4β2 nAChR (rat, UniProt P09483); test: cell-based or functional assay
rat α2β2 nAChR = rat α2β2 nAChR (rat, UniProt P12389); test: cell-based or functional assay
human α3β2 nAChR [13] = target: human α3β2 nAChR (human, UniProt P32297); test: cell-based or functional assay
rat α9α10 nAChR = rat α9α10 nAChR (rat, UniProt P43144); test: cell-based or functional assay
rat α7 nAChR = rat α7 nAChR (rat, UniProt Q05941); test: cell-based or functional assay
[14] = read-out: IC50 (half-blocking dose)

## CC[C@H](C)[C@@H]1NC(=O)[C@H](CCC(=O)O)NC(=O)[C@@H]2CCCN2C(=O)[C@H](Cc2cnc[nH]2)NC(=O)[C@H](CC(=O)O)NC(=O)[C@H](C(C)C)NC(=O)[C@H](CC(N)=O)NC(=O)[C@@H]2CSSC[C@H](NC(=O)CN)C(=O)N[C@@H](CSSC[C@@H](C(N)=O)NC1=O)C(=O)N[C@@H](CO)C(=O)N[C@@H](Cc1cnc[nH]1)C(=O)N1CCC[C@H]1C(=O)N[C@@H](C)C(=O)N2 [LvIA/LvD21]
α6/α3β2β3 nAChR
  Hill slope of dose-response curve: 0.60(0.48-0.72)
α4β4 nAChR
  IC50: > 10000 nM
α4β4 nAChR; [14]
  IC50: > 10000 nM
α3β2[Q34A] nAChR mutant
  Elution time after blocking: 2 to 3 min
  Hill slope of dose-response curves: 0.90(0.22-1.58)
α3β2[V111I] nAChR mutant
  Elution time after blocking: 1 min
  Hill slope of dose-response curves: 1.31(0.66-1.96)
  current blocked: does not block at all; also recorded: totally did not block
Human α6/α3β2β3 nAChR
  Hill slope of dose-response curve: 0.85 (0.55-1.15)
  IC50: 5340 nM
α3β2 nAChR
  % of recovered current within elution time: 100%
  Hill slope of dose-response curve: 1.17 (0.88-1.46)
  Hill slope of dose-response curves: 1.17(0.79-1.54)
  blocking activity to α3β2 times higher than to α6/α3β2β3: ~100 times
  blocking of ACh-gated current: specifically blocks; also recorded: completely blocks
  current blocked: about 50%
  time to complete elution after block: ≤ 2 min
α2β2 nAChR
  IC50: > 10000 nM
  blocking of ACh-gated current: totally does not block; also recorded: no blocking activity
α2β2 nAChR; [14]
  IC50: > 10000 nM
α3β2[F119Q] nAChR mutant
  Elution time after blocking: 12 min and 10 to 12 min
  Hill slope of dose-response curves: 1.12(0.79-1.44)
  blocking activity times higher than that to wild type α3β2 nAChR: 25 times
  current blocked: blocked all current
Human α3β2 nAChR [1]
  Hill slope of dose-response curve: 0.81 (0.44-1.18)
  blocking activity to α3β2 times higher than to α6/α3β2β3: ~305 times
α4β2 nAChR
  IC50: > 10000 nM
α4β2 nAChR; [14]
  IC50: > 10000 nM
α6/α3β4 nAChR
  Hill slope of dose-response curve: 0.94 (0.66-1.22)
[2]
  analgesic effect times higher than that of morphine, same weight and dosage: 764-882 times
  pain threshold: 30 s
  pain threshold in comparison with the pain threshold of morphine: 1.3-1.5 times and 1.3 times
[3]
  analgesic effect on neuralgia: potent analgesic effects
  analgesic effect times higher than that of morphine, same weight and dose: 823-1176 times
  average analgesic value (Mechanical Threshold, % of basal): 160%
  mechanical threshold after withdrawal: significantly higher than that of morphine group
[3]; ip
  analgesic value: far higher than morphine
  analgesic value in some cases (Mechanical Threshold, % of basal): up to 200%
  average analgesic value (Mechanical Threshold, % of basal): up to 200%
α3β2[T59K] nAChR mutant
  Elution time after blocking: 20 min
  Hill slope of dose-response curves: 0.80(0.47-1.13)
  blocking activity times higher than that to wild type α3β2 nAChR: 15 times
  current blocked: blocked all current
α7 nAChR
  Hill slope of dose-response curve: 0.65 (0.43-0.87)
α3β2[K79A] nAChR mutant
  Elution time after blocking: 1 min
  Hill slope of dose-response curves: 0.86(0.43-1.30)
α3β4 nAChR
  Hill slope of dose-response curve: 1.14 (0.72-1.55)
α3β2[T59L] nAChR mutant
  Elution time after blocking: 5 to 8 min
  Hill slope of dose-response curves: 1.07(0.77-1.37)
  blocking activity times higher than that to wild type α3β2 nAChR: 7 times
α9α10 nAChR
  IC50: > 10000 nM
α9α10 nAChR; [14]
  IC50: > 10000 nM
α3β2[T59I] nAChR mutant
  Elution time after blocking: 2 min
  Hill slope of dose-response curves: 1.15(0.43-1.86)

## GCCSDPRCAWR----C* [ImI]
[4]
  IC50: 3390 nM
[5]
  IC50: 2000 nM
[6]
  IC50: 595 nM
[7]
  IC50: 41 nM
α7/5HT3 chimera
  IC50: 217 nM

## GCCSHPACAGNNQHIC* [GIC]
[4]
  IC50: 755 nM
[8]
  IC50: 309 nM
[7]
  IC50: 1.1 nM

## GCCSTPPCAVLY---C* [BuIA]
[4]
  IC50: 27.7 nM
[9]
  IC50: 1.54 to 2.1 nM
[10]
  IC50: 121 nM
[11]
  IC50: 0.26 to 0.46 nM
[6]
  IC50: 272 nM
[7]
  IC50: 5.72 nM
[12]
  IC50: 69.9 nM

## GCCSHPACNVDHPEIC (not fully specified; ends and bridges not checked) [α-conotoxin LvIA/LvD21]
Rat α2β4 nAChR
  IC50 (half-blocking dose) on ACh-gated current: 15500 nM
Rat α4β4 nAChR
  IC50 (half-blocking dose) on ACh-gated current: > 10000 nM
Rat α4β2 nAChR
  IC50 (half-blocking dose) on ACh-gated current: > 10000 nM
Rat α2β2 nAChR
  IC50 (half-blocking dose) on ACh-gated current: > 10000 nM
Human α3β2 nAChR [13]
  IC50 (half-blocking dose) on ACh-gated current: 17.5 nM
Rat α9α10 nAChR
  IC50 (half-blocking dose) on ACh-gated current: > 10000 nM
Rat α7 nAChR
  IC50 (half-blocking dose) on ACh-gated current: 3000 nM
